From patent US10670605B2, “Cysteine reactive probes and uses thereof” (The Scripps Research Institute, priority 2015, dated 2020) come the findings set out here.

Common to all, as to test: Competitive isoTOP-ABPP, cell lysates
Assay type in all cases: binding

The target of one assay is T1, ACAT1 C119 (P24752) (Homo sapiens, UniProt P24752).
T1 sequence (P24752 34-427): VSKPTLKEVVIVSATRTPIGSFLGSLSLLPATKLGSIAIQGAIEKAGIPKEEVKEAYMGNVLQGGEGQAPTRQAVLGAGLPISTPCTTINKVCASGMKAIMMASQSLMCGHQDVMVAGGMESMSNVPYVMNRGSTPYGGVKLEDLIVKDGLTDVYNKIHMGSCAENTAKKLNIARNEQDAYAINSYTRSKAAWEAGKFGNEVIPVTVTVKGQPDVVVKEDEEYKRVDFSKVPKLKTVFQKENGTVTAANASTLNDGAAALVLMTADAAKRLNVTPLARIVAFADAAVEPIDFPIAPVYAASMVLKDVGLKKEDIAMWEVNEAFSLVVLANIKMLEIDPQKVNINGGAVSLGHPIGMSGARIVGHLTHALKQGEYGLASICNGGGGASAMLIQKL

The target of a further assay is T2, ACAT1 C196 (P24752) (Homo sapiens, UniProt P24752).
T2 sequence (P24752 34-427): T1 sequence (P24752 34-427)

For the next assay, the target named is T3, ACAT1 C126 (P24752) (Homo sapiens, UniProt P24752).
T3 sequence (P24752 34-427): T1 sequence (P24752 34-427)
The following applies: for R value (DMSO/fragment): in vitro; for isoTOP-ABPP ratio, P24752_C126: invitro.

A further assay concerns the target T4, USP22 C171 (Q9UPT9) (Homo sapiens, UniProt Q9UPT9).
T4 sequence (Q9UPT9 1-525): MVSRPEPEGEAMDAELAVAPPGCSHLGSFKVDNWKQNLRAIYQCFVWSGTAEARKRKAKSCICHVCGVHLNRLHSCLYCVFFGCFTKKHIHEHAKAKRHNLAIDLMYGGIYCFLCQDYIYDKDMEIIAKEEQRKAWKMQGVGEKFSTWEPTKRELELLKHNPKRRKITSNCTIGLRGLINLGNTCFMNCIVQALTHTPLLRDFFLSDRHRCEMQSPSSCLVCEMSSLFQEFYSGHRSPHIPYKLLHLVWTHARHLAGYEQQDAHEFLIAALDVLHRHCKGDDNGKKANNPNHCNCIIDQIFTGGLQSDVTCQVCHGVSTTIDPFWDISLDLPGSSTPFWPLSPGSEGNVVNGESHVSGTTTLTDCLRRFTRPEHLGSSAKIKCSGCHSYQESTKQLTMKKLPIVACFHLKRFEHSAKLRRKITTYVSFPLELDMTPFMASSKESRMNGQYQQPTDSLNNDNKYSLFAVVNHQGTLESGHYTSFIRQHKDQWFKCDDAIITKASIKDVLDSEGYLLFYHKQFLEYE

The target of the next assay is T5, ADA C75 (P00813) (Homo sapiens, UniProt P00813).
T5 sequence (P00813 1-363): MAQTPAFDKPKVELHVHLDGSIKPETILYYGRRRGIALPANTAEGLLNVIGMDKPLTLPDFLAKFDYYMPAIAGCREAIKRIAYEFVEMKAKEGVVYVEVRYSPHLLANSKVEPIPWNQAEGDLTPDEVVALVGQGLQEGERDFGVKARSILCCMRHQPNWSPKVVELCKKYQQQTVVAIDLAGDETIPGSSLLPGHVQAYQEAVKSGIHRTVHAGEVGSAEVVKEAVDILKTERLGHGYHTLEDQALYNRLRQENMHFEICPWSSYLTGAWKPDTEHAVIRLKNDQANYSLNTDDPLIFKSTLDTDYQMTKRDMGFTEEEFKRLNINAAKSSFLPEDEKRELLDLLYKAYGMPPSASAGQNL

For another assay, the target named is T6, UBE2S C118 (Q16763) (Homo sapiens, UniProt Q16763).
T6 sequence (Q16763 1-222): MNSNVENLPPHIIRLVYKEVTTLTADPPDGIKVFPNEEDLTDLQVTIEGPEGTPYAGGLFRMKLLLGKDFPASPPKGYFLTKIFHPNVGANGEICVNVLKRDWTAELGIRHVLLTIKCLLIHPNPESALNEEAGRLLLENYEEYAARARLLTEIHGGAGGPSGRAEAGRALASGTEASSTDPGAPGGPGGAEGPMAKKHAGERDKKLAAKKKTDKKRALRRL

As for `COc1ccc2c(c1)CCCN2C(=O)CCl` [compound 2], the “R value (DMSO/fragment)” value on ACAT1 C119 (P24752) (500 μM, in vitro, MDA-MB-231) is recorded as 3.9; at ACAT1 C119 (P24752) (500 μM, invitro, ramos), 3.2; at ACAT1 C196 (P24752) (500 μM, in vitro, MDA-MB-231), 12.4; on ACAT1 C196 (P24752) (500 μM, invitro, ramos), 9.3; on ACAT1 C126 (P24752) (500 μM, MDA-MB-231), 20.0; on USP22 C171 (Q9UPT9) (500 μM, invitro, ramos), 7.1. For the same molecule, the “R value (DMSO/fragment)” value at ADA C75 (P00813) (500 μM, invitro, ramos) is on record as 7.3; on UBE2S C118 (Q16763) (500 μM, in vitro, MDA-MB-231), 4.2; at UBE2S C118 (Q16763) (500 μM, invitro, ramos), 6.9.

Regarding `COc1ccc(C2CC(c3cccs3)=NN2C(=O)CCl)cc1` (stereo not drawn) [compound 4], the “R value (DMSO/fragment)” value at ACAT1 C119 (P24752) (250 μM, in vitro, MDA-MB-231) was found to be 1.8; at ACAT1 C119 (P24752) (250 μM, in vitro, Ramos), 0.2; at ACAT1 C196 (P24752) (250 μM, in vitro, MDA-MB-231), 1.9; on ACAT1 C196 (P24752) (250 μM, in vitro, Ramos), 0.5; on ACAT1 C126 (P24752) (250 μM, MDA-MB-231), 2.1; at ACAT1 C126 (P24752) (250 μM, Ramos), 1.2. The “R value (DMSO/fragment)” value on USP22 C171 (Q9UPT9) (250 μM, in vitro, Ramos) is 4.0; on ADA C75 (P00813) (250 μM, in vitro, Ramos), 0.1; on UBE2S C118 (Q16763) (250 μM, in vitro, MDA-MB-231), 1.2.

Consider `C=CC(=O)N(c1ccccc1)c1ccc(Br)cc1` [compound 5], for which the “isoTOP-ABPP ratio P24752_C119” value at ACAT1 C119 (P24752) (500 μM, invitro, 231) is listed as 1.8; on ACAT1 C119 (P24752) (500 μM, invitro, ramos), 2.4. In addition, the “isoTOP-ABPP ratio, P24752_C196” value at ACAT1 C196 (P24752) (500 μM, invitro, 231) worked out at 1.5; at ACAT1 C196 (P24752) (500 μM, invitro, ramos), 2.2. Besides, the “isoTOP-ABPP ratio, P24752_C126” value on ACAT1 C126 (P24752) (500 μM, 231) stood at 0.9; at ACAT1 C126 (P24752) (500 μM, ramos) it was 1.3. For the same molecule, the “isoTOP-ABPP ratio, Q9UPT9_C171” value on USP22 C171 (Q9UPT9) (500 μM, invitro, ramos) came to 20.0. The “isoTOP-ABPP ratio, P00813_C75” value at ADA C75 (P00813) (500 μM, invitro, ramos) stood at 2.5. For the same molecule, the “isoTOP-ABPP ratio, Q16763_C118” value at UBE2S C118 (Q16763) (500 μM, invitro, 231) is recorded as 2.8.

Take `O=C(CCl)N1CCN(S(=O)(=O)c2ccccc2F)CC1` [compound 10]: the “isoTOP-ABPP ratio P24752_C119” value on ACAT1 C119 (P24752) (500 μM, invitro, 231) turned out to be 1.5; on ACAT1 C119 (P24752) (500 μM, invitro, ramos) it was 1.4. Besides, the “isoTOP-ABPP ratio, P24752_C196” value is recorded as 2.5 at ACAT1 C196 (P24752) (500 μM, invitro, 231) and 1.7 at ACAT1 C196 (P24752) (500 μM, invitro, ramos). The “isoTOP-ABPP ratio, P24752_C126” value on ACAT1 C126 (P24752) (500 μM, 231) is reported as 3.2; on ACAT1 C126 (P24752) (500 μM, ramos), 1.5. Moreover, the “isoTOP-ABPP ratio, Q9UPT9_C171” value on USP22 C171 (Q9UPT9) (500 μM, invitro, ramos) is on record as 3.8. Further, the “isoTOP-ABPP ratio, P00813_C75” value at ADA C75 (P00813) (500 μM, invitro, ramos) is on record as 1.0. Further, the “isoTOP-ABPP ratio, Q16763_C118” value on UBE2S C118 (Q16763) (500 μM, invitro, 231) was determined as 1.7.

As for `O=C(CCl)NC(=O)NC12CC3CC(CC(C3)C1)C2` [compound 12], the “isoTOP-ABPP ratio P24752_C119” value is 1.0 on ACAT1 C119 (P24752) (500 μM, invitro, 231) and 0.7 at ACAT1 C119 (P24752) (500 μM, invitro, ramos). The “isoTOP-ABPP ratio, P24752_C196” value at ACAT1 C196 (P24752) (500 μM, invitro, 231) is on record as 1.2; on ACAT1 C196 (P24752) (500 μM, invitro, ramos), 0.9. Further, the “isoTOP-ABPP ratio, P24752_C126” value turned out to be 1.0 on ACAT1 C126 (P24752) (500 μM, 231) and 1.1 at ACAT1 C126 (P24752) (500 μM, ramos). Moreover, at USP22 C171 (Q9UPT9) (500 μM, invitro, ramos), the “isoTOP-ABPP ratio, Q9UPT9_C171” value is given as 4.1. In addition, the “isoTOP-ABPP ratio, P00813_C75” value at ADA C75 (P00813) (500 μM, invitro, ramos) is given as 0.7. The “isoTOP-ABPP ratio, Q16763_C118” value on UBE2S C118 (Q16763) (500 μM, invitro, ramos) came out at 0.6.

Take `O=C(CCl)NCCc1c[nH]c2ccccc12` [compound 13]: the “isoTOP-ABPP ratio P24752_C119” value was found to be 1.2 at ACAT1 C119 (P24752) (500 μM, invitro, 231) and 0.6 at ACAT1 C119 (P24752) (500 μM, invitro, ramos). Also, the “isoTOP-ABPP ratio, P24752_C196” value on ACAT1 C196 (P24752) (500 μM, invitro, 231) is 1.6; at ACAT1 C196 (P24752) (500 μM, invitro, ramos), 1.7. The “isoTOP-ABPP ratio, P24752_C126” value at ACAT1 C126 (P24752) (500 μM, 231) came out at 9.6; at ACAT1 C126 (P24752) (500 μM, ramos) it was 20.0. At USP22 C171 (Q9UPT9) (500 μM, invitro, ramos), the “isoTOP-ABPP ratio, Q9UPT9_C171” value worked out at 0.8. For the same molecule, the “isoTOP-ABPP ratio, P00813_C75” value on ADA C75 (P00813) (500 μM, invitro, ramos) was 0.9. Also, the “isoTOP-ABPP ratio, Q16763_C118” value on UBE2S C118 (Q16763) (500 μM, invitro, ramos) turned out to be 0.7.
